# According to patent publication US12642788B2, “Pharmaceutical composition comprising benzimidazole derivative compound” (HK INNO.N CORPORATION, priority 2020, dated 2026):
# What was measured:
# Type in all cases: in vivo, C57BL/6 male mice
# colonic tissues [1] = test: PAS staining analysis and damage to colonic tissues, DSS model; conditions: for scored degree of damage to colonic tissues: score per Table 3
# Procedure: (§1) PAS staining analysis was performed on colonic tissues obtained from each of the animal models in which DSS and DNBS had been used, the goblet cell loss was scored according to the following table 2, and the degree of tissue damage was scored according to the following table 3. [table] [table]
# colonic tissues [2] = test: PAS staining analysis and damage to colonic tissues, DNBS model
# Procedure: as §1
# [3] = tested on: colitis induced by dextran sodium sulfate (DSS); test: Mouse model of colitis using DSS (body weight, length of large intestine, DAI); conditions: 30 mg/kg/day oral twice a day; for decrease in body weight: vs day 0 = 100%
# Procedure: Mouse Model of Colitis Using DSS C57BL/6 male mice, which were eight weeks old (24.0 g), were purchased from Orient Bio, acclimated to the laboratory environment (temperature of 21±2° C. and humidity of 50±10%) for one week with a full access to feed and water, and used in an experiment. The mice were divided into a normal control group (Control, n=6), a group with induced colitis (DSS+Veh, n=8), a group dosed with tegoprazan (DSS+Tegoprazan, n=8), and a group dosed with a control drug (DSS+Rabeprazole, n=8), and the experiment was performed. To induce colitis, DSS (MPbio product, catalog No. 0216011080) was used. The group with induced colitis (DSS+Veh) was dosed with 2.0% DSS in drinking water for consecutive five days, was suspended from 2.0% DSS administration from the 5th day, and was orally dosed with 0.5% (w/v) methylcellulose aqueous solution twice a day for three days until the 8th day. The group dosed with tegoprazan (DSS+Tegoprazan) was orally dosed with tegoprazan (7-{[(4S)-5,7-difluoro-3,4-dihydro-2H-chromen-4-yl]oxy}-N,N,2-trimethyl-1H-benzi midazole-5-carboxamide), which was dissolved in 0.5% (w/v) methylcellulose aqueous solution, at a dose of 30 mg/kg/day twice a day for five days along with 2% DSS and drinking water. The group was suspended from 2.0% DSS administration from the 5th day, and was orally dosed with tegoprazan, which was dissolved in 0.5% (w/v) methylcellulose aqueous solution, twice a day for three days until the 8th day. The group dosed with the control drug (DSS+Rabeprazole) was dosed with DSS and rabeprazole in substantially the same manner as the group dosed with tegoprazan, except for using rabeprazole instead of tegoprazan. In the group dosed with tegoprazan and the group dosed with the control drug, the oral administration was performed twice a day by dividing the administration into morning/afternoon. The body weight of each mouse was measured with regard to the normal control group, the group with induced colitis, the group dosed with tegoprazan, and the group dosed with the control drug. The body weight of the mouse was measured every morning from the start day of experiment (day 0), in which DSS was not administered, until the 9th day, and the body weight of the mouse, which was measured on the start day of experiment (day 0) without the administration of DSS, was converted into 100%. On the 9th day after an initial administration of 2% DSS solution, the mouse was sacrificed and the colon was removed therefrom to measure the length of the removed large intestine. (In FIG. 2, * indicates P<0.05 and ** indicates P<0.01.) As DAI, a change in body weight, bloody stool and stool viscosity were measured every morning, and scored according to the following table 1.
# [4] = tested on: colitis induced by 2,4-dinitrobenzenesulfonic acid hydrate (DNBS); test: Mouse model of colitis using DNBS (body weight, length of large intestine, DAI, survival rate); conditions: for body weight: day 0 = 100%; for survival rate: as of day 5
# Procedure: Mouse Model of Colitis Using DNBS
# C57BL/6 male mice, which were eight weeks old (24.0 g), were purchased from Orient Bio, acclimated to the laboratory environment (temperature of 21±2° C. and humidity of 50±10%) for one week with a full access to feed and water, and used in an experiment.
# The mice were divided into a normal control group (Control, n=6), a group with induced colitis (DNBS+Vehicle, n=8), a group dosed with tegoprazan (DNBS+Tegoprazan, n=8), and a group dosed with a control drug (DNBS+Rabeprazole, n=8), and the experiment was performed.
# To induce colitis, DNBS (Sigma-Aldrich product, catalog No. 556971) was used. The mice were fasted from one day before being dosed with DNBS to remove the fecal waste in the intestine. The normal control group was dosed with 50% ethanol only by rectal route.
# The administration of DNBS was done by dissolving 5 mg of DNBS in 50% ethanol and administering it by rectal route.
# In the group dosed with tegoprazan (DNBS+Tegoprazan), the DNBS-administered mouse was orally dosed with tegoprazan (7-{[(4S)-5,7-Difluoro-3,4-dihydro-2H-chromen-4-yl]oxy}-N,N,2-trimethyl-1H-benzi midazole-5-carboxamide), which had been dissolved in 0.5% (w/v) methylcellulose aqueous solution, at a dose of 30 mg/kg/day twice a day for five days.
# In the group dosed with the control drug (DNBS+Rabeprazole), the DNBS-administered mouse was dosed with rabeprazole in substantially the same manner as the group dosed with tegoprazan, except for using rabeprazole instead of tegoprazan.
# In the group with induced colitis (DNBS+Vehicle), the DNBS-administered mouse was orally dosed with 0.5% (w/v) methylcellulose aqueous solution twice a day.
# In the group dosed with tegoprazan, the group dosed with the control drug, and the group with induced colitis, the oral administration was performed twice a day by dividing the administration into morning/afternoon. After being dosed for four days, the mouse was sacrificed on the 5th day.
# The body weight of each mouse in the normal control group, the group with induced colitis, the group dosed with tegoprazan, and the group dosed with the control drug was measured. The body weight of the mouse was measured every morning from the start day of experiment before administration of DNBS (day 0) to the 5th day, and the body weight of the mouse before administration of DNBS on day 0 was converted into 100%. In the case of the mouse sacrificed before the end of experiment, the weight of the mouse measured the day before sacrifice was included in the data as of the last day of experiment and converted (refer to FIG. 15 for survival period and survival rate).
# On the 5th day after an initial administration of DNBS, the mouse was sacrificed, and the colon was removed therefrom to measure the length of the removed large intestine. (In FIG. 10, * indicates P<0.05.)
# As DAI, a change in body weight, bloody stool and stool viscosity were measured every morning, and scored according to the following table 1.
# (In relation to the animal model of colitis using DNBS, in the case of the mouse sacrificed before the end of experiment, the DAI score of the mouse measured the day before sacrifice was included in the data as of the last day of experiment and converted (refer to FIG. 15 for survival period and survival rate).)
# IL-1β = IL-1β production/expression in colonic tissues, DSS model
# Procedure: (§2) In the mouse model of colitis using DSS, the level of mRNA expression of IL-1p, IL-6, Muc 2 and TNF-α was evaluated by using a real-time PCR. (In FIG. 5, * indicates P<0.05, ** indicates P<0.01, and *** indicates P<0.001.)
# KCNJ1 mRNA = KCNJ1 mRNA expression in colonic tissues, real-time PCR, DSS model; conditions: 30 mg/kg/day oral
# Procedure: In the mouse model of colitis using DSS, the difference in expression of KCNJ1 mRNA was measured by using a real-time PCR. (In FIG. 4, ** indicates P<0.01.)
# IL-6 [5] = test: IL-6 mRNA expression in colonic tissues, DNBS model; conditions: compared to the group with induced colitis
# IL-6 [6] = test: IL-6 mRNA expression in colonic tissues, real-time PCR, DSS model; conditions: compared to the group with induced colitis
# Procedure: as §2
# [7] = tested on: tight junction (intestinal permeability); test: FITC-dextran permeability, DSS model; conditions: FITC value in serum 4 hours after oral FITC-dextran
# Procedure: Four hours before the mouse was sacrificed in the mouse model of colitis using DSS, the mouse was orally dosed with FITC-dextran (80 mg/mL), after which cardiac puncture was performed to measure an FITC value in serum. Permeability (%) was converted based on the normal control group.
# IL-17 = IL-17 mRNA expression in colonic tissues, real-time PCR, DNBS model; conditions: compared to the group with induced colitis
# Procedure: In the mouse model of colitis using DNBS, the level of mRNA expression of IL-17 was evaluated by using a real-time PCR. (In FIG. 12, ** indicates P<0.01 and *** indicates P<0.001.)
# Muc2 = Muc2 mRNA expression in colonic tissues, real-time PCR, DSS model
# Procedure: as §2
# TNF-α [8] = test: TNF-α mRNA expression in colonic tissues, DNBS model; conditions: compared to the group with induced colitis
# TNF-α [9] = test: TNF-α mRNA expression in colonic tissues, real-time PCR, DSS model; conditions: compared to the group with induced colitis
# Procedure: as §2
# [10] = 5th day, 30 mg/kg/day oral twice a day
smiles,measurement,setting,value
"COCCCOc1ccnc(C[S+]([O-])c2nc3ccccc3[nH]2)c1C (centres unmarked) [control drug, rabeprazole, reference compound]",scored degree of damage to colonic tissues,colonic tissues [1],8.12±1.8 point
same,scored degree of damage to colonic tissues,colonic tissues [2]; score per Table 3,7.0±1.4 point
same,decrease in body weight,[3]; 9th day,about 23%
same,body weight,[4]; [10],89%
same,survival rate,[4],75%
"Cc1nc2cc(C(=O)N(C)C)cc(O[C@H]3CCOc4cc(F)cc(F)c43)c2[nH]1 [tegoprazan, (S)-4-(5,7-difluorochroman-4-yloxy)-N,N,2-trimethyl-1H-benzo[d]imidazole-6-carbox amide]",production/expression of IL-1β,IL-1β,inhibits the production/expression
same,crypt damage (PAS staining),colonic tissues [1]; colonic tissues,partially intact crypt was observed
same,goblet cells (PAS staining),colonic tissues [1]; colonic tissues,goblet cells were also present compared to the group with induced colitis
same,scored degree of damage to colonic tissues,colonic tissues [1],5.38±1.8 point
same,expression of KCNJ1 mRNA,KCNJ1 mRNA,significant decrease in expression of KCNJ1 mRNA
same,mRNA expression of IL-6,IL-6 [5],tended to decrease
same,mRNA expression of IL-6,IL-6 [6],statistically significant decrease
same,crypt damage (PAS staining),colonic tissues [2]; colonic tissues,partially intact crypt was observed
same,goblet cells (PAS staining),colonic tissues [2]; colonic tissues,presence of mucin-producing goblet cells was confirmed
same,length of the large intestine,[3]; 9th day,a rather increase in the length of the large intestine or no difference from the normal control group
same,decrease in body weight,[3]; 9th day,about 14%
same,disease activity index (DAI) score,[3]; to 9th day,took a turn for the better compared to the group with induced colitis
same,damage to the tight junction (FITC-dextran permeability),[7],significant decrease in the damage to the tight junction
same,mRNA expression of IL-17,IL-17,significant decrease
same,mRNA expression of Muc2,Muc2,statistically significant increase
same,length of the large intestine,[4]; [10],no difference in the length of the large intestine from the normal control group
same,body weight,[4]; [10],about 105%
same,survival rate,[4],all the subjects in the group dosed with tegoprazan survived until the last day of experiment
same,disease activity index (DAI) score,"[4]; to 5th day, 30 mg/kg/day oral twice a day",DAI drastically decreased from the 4th day
same,mRNA expression of TNF-α,TNF-α [8],tended to decrease
same,mRNA expression of TNF-α,TNF-α [9],statistically significant decrease
